{"source": "patent US20200172911A1", "about": "“USP30 INHIBITORS AND METHODS OF USE” (Genentech, Inc., priority 2012, published 2020)", "assay_type_in_all_cases": "cell-based, human", "key": {"[1]": {"system": "HEK-293 cells", "assay": "global ubiquitination (K-GG) mass spectrometry, USP30 knockdown", "conditions": "CCCP 5 μM, 2 hours", "description": "(§1) To determine Parkin substrates, HEK-293 GFP-Parkin inducible cells were treated with doxycycline for 24 hours, and then treated with 5 μM CCCP or DMSO vehicle control for 2 hours. To determine USP30 substrates, HEK-293T cells were transfected with human USP30 shRNA using Lipofectamine 2000 (Invitrogen) for 6 days, then treated as before. […] Preparation of cellular lysates and immunoprecipitation\nTo identify Parkin substrates, HEK 293T cells stably expressing inducible GFP-Parkin (human) were induced using doxycycline (1 μg/mL) for 24 hours, then treated with 5 μM CCCP or DMSO vehicle control for 2 hours. To determine USP30 substrates, HEK 293T cells were transfected with human USP30 shRNA using Lipofectamine 2000 (Invitrogen) for 6 days, then treated as above.\nImmunoaffinity isolation and mass spectrometry methods were used to enrich and identify K-GG peptides from digested protein lysates as previously described (Xu et al., Nat. Biotech., 28: 868-873 (2010); Kim et al., Mol. Cell, 44: 325-340 (2011)). Cell lysates were prepared in lysis buffer (8M urea 20 mM HEPES pH 8.0 with 1 mM sodium orthovanadate, 2.5 mM sodium pyrophosphate, 1 mM ß-glycerophosphate) by brief sonication on ice. Protein samples (60 mg) were reduced at 60° C. for 20 min in 4.1 mM DTT, cooled 10 min on ice, and alkylated with 9.1 mM iodoacetamide for 15 min at room temperature in the dark. […]"}, "[2]": {"system": "USP30", "assay": "USP30 knockdown efficiency in HEK-293 cells", "description": "as §1\nSince Parkin and USP30 antagonistically regulate mitochondrial degradation, it was hypothesized that this E3 ligase and DUB act on some common substrates. To identify Parkin and USP30 substrates, global ubiquitination in cells was analyzed by mass spectrometry (MS) following immunoaffinity enrichment of ubiquitinated peptides from trypsin-digested extracts using the ubiquitin branch-specific (K-GG) antibodies. Global ubiquitination was analyzed and quantified by MS in HEK-293 cells in two different sets of conditions: 1) inducible Parkin overexpression, or 2) USP30 knockdown (USP30 knockdown efficiency was 85±5% (see FIG. 7C)). In each set, cells were treated with CCCP (5 μM, 2 hours) or vehicle control (DMSO)."}, "[3]": {"system": "GFP-Parkin expressing stable HEK-293 cells", "assay": "HA-ubiquitin immunoprecipitation and immunoblot of MIRO and Tom20", "conditions": "HA-ubiquitin immunoprecipitates, CCCP 5 μM, 2 hours", "description": "For total lysate experiments, transfected HEK-293 cells were lysed at 24 hours post-transfection in SDS sample buffer (Invitrogen) containing sample reducing agent (Invitrogen). For immunoprecipitation experiments, cells were lysed at 24 hours (overexpression experiments) or 6 days (knockdown experiments) post-transfection in TBS buffer containing 0.5% SDS, and lysates were diluted with a buffer containing 1% Triton-X-100 and protease and phosphatase inhibitors. Ubiquitinated proteins were immunoprecipated from lysates of HA-ubiquitin transfected cells with anti-HA affinity matrix beads (Roche Applied Science). Inputs and precipitates were resolved by SDS-PAGE and analyzed by immunoblotting.\nFor total lysate experiments, cells were lysed after 24 hours in SDS sample buffer (Invitrogen) containing sample reducing agent (Invitrogen) and boiled at 95° C. for 10 minutes. Total lysates were resolved by SDS-PAGE and analyzed by immunoblotting. For immunoprecipitation experiments, cells were treated with 5 μM MG132 and the indicated concentrations and durations of CCCP at 24 hours (overexpression experiments) or 6 days (knockdown experiments) in 0.5% SDS in Tris-Buffered Saline (10 mM TRIS, 150 mM NaCl, pH 8.0) and boiled at 70° C. for 10 minutes. […] Inputs and anti-HA immunoprecipitates were resolved by SDS-PAGE and analyzed by immunoblotting. […]"}, "[4]": {"system": "HeLa cells cotransfected with GFP-Parkin", "assay": "mitochondrial degradation assay / DUB cDNA overexpression screen (Tom20 staining)", "conditions": "CCCP 20 μM, 24 hours", "description": "To identify regulators of mitophagy, individual cDNAs from a FLAG-tagged DUB library were cotransfected into HeLa cells with GFP-Parkin using Lipofectamine 2000 (Invitrogen) (1:3 DUB-FLAG: GFP-Parkin cDNA ratio). After 24 hours of expression, cells were treated with […] CCCP for 24 hours, and fixed and stained using anti-Tom20 (Santa Cruz Biotechnology), anti-GFP (Aves Labs) and anti-FLAG (Sigma) primary antibodies. Following staining with secondary antibodies, images of random fields were acquired with a Leica SP5 Laser Scanning Confocal Microscope using a 40×/1.25 oil-objective (0.34 μm/pixel resolution, 1 μm confocal z-step size). Percent of GFP-Parkin and FLAG-DUB cotransfected cells containing Tom20 staining was scored blindly.\nTo identify DUBs that regulate mitochondria clearance, a FLAG-tagged human DUB cDNA library (97 DUBs) was screened in an established mitochondrial degradation assay (Narendra et al., J. Cell Biol., 183: 795-803 (2008)). In this assay, mitochondria depolarization induced by protonophore carbonyl cyanide 3-chlorophenylhydrazone (CCCP, 20 μM, 24 hours) results in marked loss of mitochondria in cultured cells overexpressing Parkin (as measured by staining for mitochondria outer membrane protein marker Tom20). […] Individual FLAG-tagged DUB cDNAs were cotransfected with GFP-Parkin, and their effects on CCCP-induced mitochondrial (Tom20) clearance were measured. […]"}, "[5]": {"system": "GFP-Parkin stable cell lines (HEK-293)", "assay": "immunoblot of mitochondrial protein levels during CCCP treatment", "conditions": "CCCP 5 μM, t=6 h, p<0.01", "description": "For total lysate experiments, cells were lysed after 24 hours in SDS sample buffer (Invitrogen) containing sample reducing agent (Invitrogen) and boiled at 95° C. for 10 minutes. Total lysates were resolved by SDS-PAGE and analyzed by immunoblotting. For immunoprecipitation experiments, cells were treated with 5 μM MG132 and the indicated concentrations and durations of CCCP at 24 hours (overexpression experiments) or 6 days (knockdown experiments) in 0.5% SDS in Tris-Buffered Saline (10 mM TRIS, 150 mM NaCl, pH 8.0) and boiled at 70° C. for 10 minutes. […] Inputs and anti-HA immunoprecipitates were resolved by SDS-PAGE and analyzed by immunoblotting.\nBeyond ubiquitination, does USP30 regulate protein turnover in addition to ubiquitination? […] In contrast to the outer membrane proteins, mitochondrial matrix protein HSP60 and inner membrane protein TIMM8A were unchanged by CCCP within this time frame. Overexpression of USP30 in GFP-Parkin stable cells greatly attenuated or abolished the CCCP-induced depletion of MIRO and Tom20 (FIG. 6G, H). Stabilization by USP30 overexpression appeared to be relatively specific for MIRO and Tom20, since CCCP-induced degradation of other mitochondria membrane proteins (MFN-1, TOM70, VDAC) was unaffected (FIG. 6G, H)."}}}
{"compound": "CCAGAGTCCTGTTCGATTT ((CCAGAGTCCTGTTCGATTT; as printed in the source, key not given here) [human USP30 shRNA]", "values": [{"measurement": "USP30 shRNA+CCCP/CCCP ubiquitination ratio for Tom20", "setting": "[1]; p=0.005", "result": 3.52}, {"measurement": "USP30 shRNA+CCCP/CCCP ubiquitination ratio for MIRO", "setting": "[1]; p=0.019", "result": 2.95}, {"measurement": "USP30 knockdown efficiency", "setting": "[2]", "result": "85±5", "unit": "%"}, {"measurement": "increase in level of ubiquitinated MIRO", "setting": "[3]", "result": "~2.5", "unit": "fold"}]}
{"compound": "N#CC(C#N)=NNc1cccc(Cl)c1", "note": "[CCCP, carbonyl cyanide 3-chlorophenylhydrazone]", "values": [{"measurement": "Parkin-transfected cells lacking Tom20 staining", "setting": "[4]", "result": "> 80", "unit": "%"}, {"measurement": "decrease in Tom20 protein level", "setting": "[5]", "result": "10+/−1%"}]}
